The record followed here is patent US4094964A, “Clonidine assay” (Hoffmann-La Roche Inc., priority 1977, dated 1978).

In the first data set the test system is antibody in the antiserum of rabbit immunized by the clonidine bovine serum albumin immunogen. The experiment in a line: Radioimmunoassay specificity: competition with clonidine-14C for binding to the antiserum. The conditions noted are these: 100 ng to 500 pg of competitor, antiserum 1:50, about 18 hours at 4° C., pH 7.4. The protocol: The antiserum of Example 3 as used for the radioimmunoassay was diluted with normal rabbit serum which was diluted with phosphate-buffered saline, pH 7.4, at 1:10-dilution. To determine the antibody titre of antiserum, 0.1 ml of various dilutions of the antiserum was incubated in an assay tube (10 × 75 mm) with 2 ng of clonidine ^14 C approximately 3,000 cpm at 4° C. for about 18 hours. The volume was adjusted to 0.5 ml with phosphate-buffered saline, pH 7.4, which is the optimal pH for the assay. The antibody bound clonidine was separated from free clonidine by the addition of saturated ammonium sulfate which was adjusted to pH 7.4 with ammonium hydroxide as described by Farr, J. Infect. Dis 103, 239 (1958). After 2 washings with 50% saturated ammonium sulfate, the precipitate was dissolved in 0.5 ml of water. The content of the tube was transferred to counting vial and the tube was then washed 4 times with 3 ml of Riafluor. The 12 ml washings were all collected in the vial. The radioactivity was then counted with a Beckman liquid scintillation counter. The dilution of the antiserum chosen for further studies was 1:50.
Appropriate volume of phosphate-buffered saline, pH 7.4 was added to all tubes containing 0.1 ml of the antiserum to make a final incubation volume of 0.5 ml. To the tubes were added 100 ul of clonidine-^14 C and various quantities ranging from 100 ng to 500 pg of clonidine, 2-(2,6-dichloro-4-hydroxyanilino)-2-imidazoline (4-hydroxyclonidine), 2-(2,6-dichloro-4-sulfonamidoanilino)-2-imidazoline (4-sulfonamidoclonidine),2-(2-chloro-3-methylanilino)-2-imidazoline, 2-(2-chloro-4-methylanilino)-2-imidazoline, 2-(2-chloro-6-methylanilino)-2-imidazoline, 2-anilino-2-imidazoline, 2-(2,6-dichloro-anilino)-2-methyl-2-imidazoline (2-methylclonidine), 2-(2,6-dichloroanilino)-1-methyl-2-imidazoline (1-methylclonidine), 1-acetamido-2-(2,6-dichloroanilino)-2-imidazoline (1-acetamidoclonidine), 2-(2,6-dichloroanilino)-2-pyrroline, 2-(2,6-dichloroanilino)-2-oxazoline, 2-(2,6-dichloroanilino)-2-benzimidazole, 2-(2,6-dichloroanilino)-1,3-dimethylquanidine, 2-(2,6-dichloroanilino)-1-methylguanidine, 2-(2,6-dichloroanilino)quanidine, aniline or 2-(2,6-dichlorobenzyl)-2-imidazoline. The tubes were then incubated for about 18 hours at 4° C. followed by precipitation with ammonium sulfate.
The specificity of the antibody in the antiserum of rabbit immunized by the clonidine bovine serum albumin immunogen was determined by incubating the antiserum with 2-(2,6-dichloro-4-hydroxyanilino)-2-imidazoline (4-hydroxyclonidine), 2-(2,6-dichloro-4-sulfonamidoanilino)-2-imidazoline (4-sulfonamidoclonidine), 2-(2-chloro-3-methylanilino)-2-imidazoline, 2-(2-chloro-4-methylanilino)-2-imidazoline, 2-(2-chloro-6-methylanilino)-2-imidazoline, 2-anilino-2-imidazoline, 2-(2,6-dichloroanilino)-2-methyl-2-imidazoline (2-methylclonidine), 2-(2,6-dichloroanilino)-1-methyl-2-imidazoline (1-methylclonidine), 1-acetamido-2-(2,6-dichloroanilino)-2-imidazoline (1-acetamidoclonidine), 2-(2,6-dichloroanilino)-2-pyrroline, 2-(2,6-dichloroanilino)-2-oxazoline, 2-(2,6-dichloroanilino)-2-benzimidazole, 2-(2,6-dichloroanilino)-1,3-dimethylguanidine, 2-(2,6-dichloroanilino)-1-methylguanidine, 2-(2,6-dichloroanilino)guanidine, aniline or 2-(2,6-dichlorobenzyl)-2-imidazoline in the presence of labelled clonidine.
Regarding `Cc1cccc(Cl)c1NC1=NCCN1` [2-(2-chloro-6-methylanilino)-2-imidazoline], the “recognition by the antibody in the presence of labelled clonidine” value (shortened to “recognition by the antibody”) is “recognized”.

As to `CN1CCN=C1Nc1c(Cl)cccc1Cl` [2-(2,6-dichloroanilino)-1-methyl-2-imidazoline], the “recognition by the antibody” value is “failed to recognize”.

Turning to `Clc1cccc(Cl)c1CC1=NCCN1` [2-(2,6-dichlorobenzyl)-2-imidazoline], the “recognition by the antibody” value is reported as “failed to recognize”.

As to `c1ccc(NC2=NCCN2)cc1` [2-anilino-2-imidazoline], the “recognition by the antibody” value is on record as “failed to recognize”.

For `Clc1cccc(Cl)c1NC1=NCCO1` [2-(2,6-dichloro-anilino)-2-oxazoline, 2-(2,6-dichloroanilino)-2-oxazoline], the “recognition by the antibody” value was “failed to recognize”.

Take “2-(2,6-dichloroanilino)guanidine [2-(2,6-dichloro-anilino)guanidine]”: the “recognition by the antibody” value is reported as “failed to recognize”.

`Nc1ccccc1` [aniline]: the “recognition by the antibody” value is listed as “failed to recognize”.

For `Cc1ccc(NC2=NCCN2)c(Cl)c1` [2-(2-chloro-4-methylanilino)-2-imidazoline], the “recognition by the antibody” value is listed as “recognized”.

Regarding `NS(=O)(=O)c1cc(Cl)c(NC2=NCCN2)c(Cl)c1` [2-(2,6-dichloro-4-sulfonamidoanilino)-2-imidazoline], the “recognition by the antibody” value was “recognized”.

Turning to “2-(2,6-dichloroanilino)-2-methyl-2-imidazoline”, the “recognition by the antibody” value is listed as “failed to recognize”.

Regarding `Oc1cc(Cl)c(NC2=NCCN2)c(Cl)c1` [2-(2,6-dichloro-4-hydroxyanilino)-2-imidazoline], the “recognition by the antibody” value was “recognized”.

With “2-(2,6-dichloroanilino)-1,3-dimethylguanidine”, the “recognition by the antibody” value is given as “failed to recognize”.

Turning to `CC(=O)NN1CCN=C1Nc1c(Cl)cccc1Cl` [1-acetamido-2-(2,6-dichloroanilino)-2-imidazoline], the “recognition by the antibody” value is “recognized”.

`Cc1cccc(NC2=NCCN2)c1Cl` [2-(2-chloro-3-methylanilino)-2-imidazoline]: the “recognition by the antibody” value is recorded as “recognized”.

The same data set, now with this note: antiserum 1:50, about 18 hours at 4° C., pH 7.4.
`Clc1cccc(Cl)c1NC1=CCCN1` [2-(2,6-dichloroanilino)-2-pyrroline]: the “concentration required relative to that of clonidine (cross-reactivity)” value was “about 40 times that of clonidine”.

With “2-(2,6-dichloroanilino)-1-methylguanidine”, the “concentration required relative to that of clonidine (cross-reactivity)” value is “about 40 times that of clonidine”.

Still in this data set, the particulars now being: read-out: concentration producing a 50% inhibition of binding of clonidine-14C to the antibody; antiserum 1:50, about 18 hours at 4° C., pH 7.4, ammonium sulfate precipitation.
Turning to `Clc1cccc(Cl)c1N=C1NCCN1` [Clonidine], the IC50 was found to be 25 nM.
